Laboratory results: paper PMC6017193, “Structure-Based Discovery of a Series of 5H-Pyrrolo[2,3-b]pyrazine FGFR Kinase Inhibitors” (Molecules : A Journal of Synthetic Chemistry and Natural …, 2018)

Tests used:
[1] = test system: KG1 leukemia cell line harboring FGFR1OP-FGFR1 fusion; assay: Cell proliferation assay in KG1 cells (SRB or MTT, 72 h); type: cell-based; details: Homo sapiens, KG-1, mean ± SD from two separate experiments, read-out: KG1 IC50 (antiproliferation activity)
Experimental: Cell proliferation was examined in a FGFR1-translocated KG1 leukemia cell line harboring FGFR1OP-FGFR1 fusion. The original KG1 cell line was purchased from ATCC (CRL-8031), and cultured according the ATCC standard protocol. Cells were seeded in 96-well tissue culture plates. On the next day, the cells were exposed to various concentrations of compounds and further cultured for 72 h. Cell proliferation was then determined using sulforhodamine B (SRB, from Sigma-Aldrich, St Louis, MO, USA) or the thiazolyl blue tetrazolium bromide (MTT, from Sigma-Aldrich, St Louis, MO, USA) assay. The IC50 values were calculated by concentration- response curve fitting using the four-parameter method.

FGFR1 = target: T1, FGFR1 (Homo sapiens, UniProt P11362); assay: ELISA kinase assay, FGFR1 enzymatic activity; type: biochemical; details: for inhibition at 0.01 µM: 0.01 μM (10 nM); for inhibition at 0.01 µM / inhibition at 0.1 µM / inhibition at 1 µM: mean of two separate experiments; for IC50: mean ± SD from two separate experiments
T1 construct: purchased Millipore
T1 sequence (P11362 22-822): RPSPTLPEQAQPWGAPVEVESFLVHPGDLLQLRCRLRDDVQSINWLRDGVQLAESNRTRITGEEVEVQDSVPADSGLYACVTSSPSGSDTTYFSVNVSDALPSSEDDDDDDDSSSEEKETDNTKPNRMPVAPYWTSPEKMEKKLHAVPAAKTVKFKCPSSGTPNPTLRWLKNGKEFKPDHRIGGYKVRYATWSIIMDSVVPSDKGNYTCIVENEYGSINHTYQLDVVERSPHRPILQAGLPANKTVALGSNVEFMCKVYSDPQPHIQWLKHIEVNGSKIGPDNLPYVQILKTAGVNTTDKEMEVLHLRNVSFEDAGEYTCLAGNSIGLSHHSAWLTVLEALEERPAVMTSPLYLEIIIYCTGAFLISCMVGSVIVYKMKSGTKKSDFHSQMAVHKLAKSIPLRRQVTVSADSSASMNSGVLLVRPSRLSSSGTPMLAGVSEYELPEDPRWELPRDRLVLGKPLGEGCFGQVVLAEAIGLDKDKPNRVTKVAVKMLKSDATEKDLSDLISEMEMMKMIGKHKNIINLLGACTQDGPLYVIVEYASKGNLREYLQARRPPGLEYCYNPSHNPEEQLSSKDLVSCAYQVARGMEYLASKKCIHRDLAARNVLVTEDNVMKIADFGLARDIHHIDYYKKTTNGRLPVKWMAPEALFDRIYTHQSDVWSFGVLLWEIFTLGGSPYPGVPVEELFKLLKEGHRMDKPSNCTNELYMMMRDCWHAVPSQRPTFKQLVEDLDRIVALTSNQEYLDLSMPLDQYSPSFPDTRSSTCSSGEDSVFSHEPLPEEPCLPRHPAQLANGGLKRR
Experimental: The effects of compounds on the activities of indicated (FGFR1 and c-Met) kinases were determined using enzyme-linked immunosorbent assays (ELISAs) with purified recombinant proteins. Briefly, 20 μg/mL poly (Glu, Tyr)4:1 (Sigma, St. Louis, MO, USA) was precoated in 96-well plates as a substrate. A 50-μL aliquot of 10 μmol/L ATP solution diluted in kinase reaction buffer (50 mmol/L HEPES (pH 7.4), 50 mmol/L MgCl2, 0.5 mmol/L MnCl2, 0.2 mmol/L Na3VO4, and 1 mmol/L DTT) was added to each well; 1 μL of various concentrations of compounds diluted in 1% DMSO (v/v) (Sigma) were then added to each reaction well. DMSO (1%, v/v) was used as the negative control. The kinase reaction was initiated by the addition of purified tyrosine kinase proteins FGFR1 (Millipore, Darmstadt, Germany) or c-Met (Millipore) diluted in 49 μL of kinase reaction buffer. After incubation for 60 min at 37 °C, the plate was washed three times with phosphate-buffered saline (PBS) containing 0.1% Tween 20 (T-PBS). Anti-phosphotyrosine (PY99) antibody (Sanra Cruz, Dallas, TX, USA) (100 μL; 1:500, diluted in 5 mg/mL bovine serum albumin (BSA) T-PBS) was then added. After a 30-min incubation at 37 °C, the plate was washed three times, and 100 μL of horseradish peroxidase-conjugated goat anti-mouse IgG (Calbiochem, Shanghai, China) (1:2000, diluted in 5 mg/mL BSA T-PBS) was added. The plate was then incubated at 37 °C for 30 min, and washed three times. A 100-μL aliquot of a solution containing 0.03% H2O2 and 2 mg/mL o-phenylenediamine in 0.1 mol/L citrate buffer (pH 5.5) was added. The reaction was terminated by the addition of 50 μL of 2 mol/L H2SO4 as the color changed, and the plate was analyzed using a multi-well spectrophotometer (SpectraMAX 190, Molecular Devices, Palo Alto, CA, USA) at 490 nm. The inhibition rate (%) was calculated using the following equation:IR = [1 − (A490/A490control)] × 100%.(1) where IR, A490, and A490control are the inhibition rate, the absorbance value of the tested compound at 490 nm, and the absorbance value of the negative control compound at 490 nm, respectively. The IC50 values were calculated from the inhibition curves in two separate experiments.

SMILES	IC50 [1] [nM]	inhibition at 0.01 µM (FGFR1) [%]	inhibition at 0.1 µM (FGFR1) [%]	inhibition at 1 µM (FGFR1) [%]	IC50 (FGFR1) [nM]
O=S(=O)(c1c[nH]cn1)n1ccc2ncc(-c3cn[nH]c3)nc21 [Compound 27, 5-((1H-Imidazol-4-yl)sulfonyl)-3-(1H-pyrazol-4-yl)-5H-pyrrolo[2,3-b]pyrazine]	187 ± 17.2	27.9	71.9	90.7	15.7 ± 4.8
Cn1cnc(S(=O)(=O)n2ccc3ncc(-c4cn[nH]c4)nc32)c1 [Compound 28, 5-((1-Methyl-1H-imidazol-4-yl)sulfonyl)-3-(1H-pyrazol-4-yl)-5H-pyrrolo[2,3-b]pyrazine]	98.5 ± 19.1	12.5	63.2	88.8	15.4 ± 3
CCn1cnc(S(=O)(=O)n2ccc3ncc(-c4cn[nH]c4)nc32)c1 [Compound 29, 5-((1-ethyl-1H-imidazol-4-yl)sulfonyl)-3-(1H-pyrazol-4-yl)-5H-pyrrolo[2,3-b]pyrazine]	17.4 ± 8.7	53.7	79.5	94.6	3 ± 0.7
